# Assay results: ChEMBL document CHEMBL4765259, “Synthesis and biological evaluation of novel shikonin-benzo[b]furan derivatives as tubulin polymerization inhibitors targeting the colchicine binding site” (Eur J Med Chem, 2020)
# The source made the active and inactive calls. The calls are words filed in the database; no cut-off is given here.
# How the values were obtained:
# [1] = species on record: Homo sapiens; experiment: Inhibition of [3H]colchicine binding to tubulin (unknown origin) at 4 uM incubated for 2 hrs by scintillation counting method relative to control
# [2] = Antiproliferative activity against human HEK293T cells incubated for 48 hrs by MTT assay; type: cell-based, HEK-293T
# [3] = tested on: K562; experiment: Antiproliferative activity against drug resistant human K562 cells incubated for 48 hrs by MTT assay; type: functional, cell-based; details: K562, 48 h
# [4] = tested on: MCF7; experiment: cells; details: Homo sapiens, MCF7, 48 h
# Description: Antiproliferative activity against drug-resistant human MCF7 cells incubated for 48 hrs by MTT assay
# [5] = Antiproliferative activity against human LO2 cells incubated for 48 hrs by MTT assay; type: cell-based, L02
# [6] = tested on: HT-29; experiment: Antiproliferative activity against human HT29 cells incubated for 48 hrs by MTT assay; type: functional, cell-based; details: HT-29, 48 h
# [7] = species on record: Homo sapiens; experiment: Inhibition of [3H]colchicine binding to tubulin (unknown origin) at 2 uM incubated for 2 hrs by scintillation counting method relative to control
# [8] = tested on: HepG2; experiment: Antiproliferative activity against human HepG2 cells incubated for 48 hrs by MTT assay; type: functional, cell-based; details: HepG2, 48 h
# [9] = tested on: MDA-MB-231; experiment: cells; details: Homo sapiens, MDA-MB-231, 48 h
# [10] = tested on: A549; experiment: cells; details: Homo sapiens, A549, 48 h
# [11] = tested on: HCT-116; experiment: cells; details: Homo sapiens, HCT-116, 48 h
# Description: Antiproliferative activity against human HCT116 cells incubated for 48 hrs by MTT assay
# [12] = Inhibition of tubulin polymerization (unknown origin) measured every 2 mins for 60 mins by spectrophotometric method; set-up: species or system Homo sapiens
# [13] = tested on: MCF7; experiment: cells; details: Homo sapiens, MCF7, 48 h; remark: listed apart in the source
# [14] = tested on: K562; experiment: cells; details: Homo sapiens, K562, 48 h
# Description: Antiproliferative activity against human K562 cells incubated for 48 hrs by MTT assay
# [15] = tested on: HT-29; experiment: Induction of apoptosis in human HT-29 cells assessed as early apoptotic cells at 0.5 uM measured after 24 hrs by Annexin V-FITC/propidium iodide staining based flow cytometry (reference value: 1.6 %); type: functional
# [16] = tested on: HT-29; experiment: Cell cycle arrest in human HT29 cells assessed as cell accumulation at G1 phase at 0.5 uM incubated for 24 hrs by propidium iodide staining based flow cytometry (reference value: 69.19 %); type: functional
# [17] = tested on: HT-29; experiment: Induction of apoptosis in human HT-29 cells assessed as late apoptotic cells at 0.5 uM measured after 24 hrs by Annexin V-FITC/propidium iodide staining based flow cytometry (reference value: 0.0 %); type: functional
# [18] = tested on: HT-29; experiment: Cell cycle arrest in human HT29 cells assessed as cell accumulation at G1 phase at […] incubated for 24 hrs by propidium iodide staining based flow cytometry (reference value: 69.19 %); type: functional; details: dose 0.25 µM
# [19] = tested on: HT-29; experiment: Cell cycle arrest in human HT29 cells assessed as cell accumulation at G1 phase at 1 uM incubated for 24 hrs by propidium iodide staining based flow cytometry (reference value: 69.19 %); type: functional
# [20] = tested on: HT-29; experiment: Cell cycle arrest in human HT29 cells assessed as cell accumulation at S phase at 1 uM incubated for 24 hrs by propidium iodide staining based flow cytometry (reference value: […] %); type: functional
# [21] = tested on: HT-29; experiment: Induction of apoptosis in human HT-29 cells assessed as necrotic cells at 1 uM measured after 24 hrs by Annexin V-FITC/propidium iodide staining based flow cytometry (reference value: 0.1 %); type: functional
# [22] = tested on: HT-29; experiment: Cell cycle arrest in human HT29 cells assessed as cell accumulation at S phase at 0.5 uM incubated for 24 hrs by propidium iodide staining based flow cytometry (reference value: […] %); type: functional
# [23] = tested on: HT-29; experiment: Cell cycle arrest in human HT29 cells assessed as cell accumulation at G2 phase at 0.5 uM incubated for 24 hrs by propidium iodide staining based flow cytometry (reference value: […]); type: functional
# [24] = tested on: HT-29; experiment: Induction of apoptosis in human HT-29 cells assessed as viable cells at […] measured after 24 hrs by Annexin V-FITC/propidium iodide staining based flow cytometry (reference value: 98.3 %); type: functional; details: dose 0.25 µM, read-out: Activity
# [25] = tested on: HT-29; experiment: Induction of apoptosis in human HT-29 cells assessed as early apoptotic cells at 1 uM measured after 24 hrs by Annexin V-FITC/propidium iodide staining based flow cytometry (reference value: 1.6 %); type: functional
# [26] = tested on: HT-29; experiment: Induction of apoptosis in human HT-29 cells assessed as late apoptotic cells at 1 uM measured after 24 hrs by Annexin V-FITC/propidium iodide staining based flow cytometry (reference value: 0.0 %); type: functional
# [27] = tested on: HT-29; experiment: Induction of microtubule disruption in human HT-29 cells at 0.5 uM incubated for 24 hrs by DAPI staining based confocal fluorescence microscopic analysis; type: cell-based
# [28] = tested on: HT-29; experiment: Induction of apoptosis in human HT-29 cells assessed as viable cells at 1 uM measured after 24 hrs by Annexin V-FITC/propidium iodide staining based flow cytometry (reference value: 98.3 %); type: functional; details: read-out: Activity
# [29] = tested on: HT-29; experiment: Induction of apoptosis in human HT-29 cells assessed as necrotic cells at 0.5 uM measured after 24 hrs by Annexin V-FITC/propidium iodide staining based flow cytometry (reference value: 0.1 %); type: functional
# [30] = tested on: HT-29; experiment: Induction of apoptosis in human HT-29 cells assessed as necrotic cells at […] measured after 24 hrs by Annexin V-FITC/propidium iodide staining based flow cytometry (reference value: 0.1 %); type: functional; details: dose 0.25 µM
# [31] = tested on: HT-29; experiment: Cell cycle arrest in human HT29 cells assessed as cell accumulation at S phase at […] incubated for 24 hrs by propidium iodide staining based flow cytometry (reference value: […] %); type: functional; details: dose 0.25 µM
# [32] = tested on: HT-29; experiment: Induction of apoptosis in human HT-29 cells assessed as early apoptotic cells at […] measured after 24 hrs by Annexin V-FITC/propidium iodide staining based flow cytometry (reference value: 1.6 %); type: functional; details: dose 0.25 µM
# [33] = tested on: HT-29; experiment: Cell cycle arrest in human HT29 cells assessed as cell accumulation at G2 phase at […] incubated for 24 hrs by propidium iodide staining based flow cytometry (reference value: […]); type: functional; details: dose 0.25 µM
# [34] = tested on: HT-29; experiment: Induction of apoptosis in human HT-29 cells assessed as late apoptotic cells at […] measured after 24 hrs by Annexin V-FITC/propidium iodide staining based flow cytometry (reference value: 0.0 %); type: functional; details: dose 0.25 µM
# [35] = tested on: HT-29; experiment: Cell cycle arrest in human HT29 cells assessed as cell accumulation at G2 phase at 1 uM incubated for 24 hrs by propidium iodide staining based flow cytometry (reference value: […]); type: functional
# [36] = tested on: HT-29; experiment: Induction of apoptosis in human HT-29 cells assessed as viable cells at 0.5 uM measured after 24 hrs by Annexin V-FITC/propidium iodide staining based flow cytometry (reference value: 98.3 %); type: functional; details: read-out: Activity
structure (smiles),measurement,setting,value
COc1ccc(/C=C\c2cc(OC)c(OC)c(OC)c2)cc1O [COMBRETASTATIN A4],inhibition,[1],93%
same,CC50 at 48 h,[2],1440 nM
same,IC50,[3],6150 nM
same,IC50,[4],490 nM
same,CC50 at 48 h,[5],360 nM
same,IC50,[6],310 nM
same,inhibition,[7],81.5%
same,IC50,[8],270 nM
same,IC50,[9],90 nM
same,IC50,[10],230 nM
same,IC50,[11],110 nM
same,IC50,[12],1120 nM
same,IC50,[13],250 nM
same,IC50,[14],610 nM
COc1cc2c(c(OC)c1OC)-c1ccc(OC)c(=O)cc1[C@@H](NC(C)=O)CC2 [COLCHICINE],Activity,[15],12.1%
same,Activity,[16],27.11%
same,CC50 at 48 h,[2],8430 nM
same,IC50,[3],6590 nM
same,Activity,[17],10.5%
same,IC50,[4],520 nM
same,CC50 at 48 h,[5],9180 nM
same,Activity,[18],57.62%
same,Activity,[19],23.93%
same,Activity,[20],35.66%
same,Activity,[21],0.4%
same,IC50,[6],1810 nM
same,Activity,[22],54.64%
same,Activity,[23],18.25%
same,viability at […],[24],87%
same,Activity,[25],15.8%
same,Activity,[26],16.8%
same,IC50,[8],1470 nM
same,Activity,[27],Active
same,viability at 1 µM,[28],67.1%
same,IC50,[9],2940 nM
same,Activity,[29],1.3%
same,Activity,[30],0.3%
same,Activity,[31],24.65%
same,IC50,[10],1170 nM
same,Activity,[32],7.6%
same,IC50,[11],2130 nM
same,IC50,[12],2110 nM
same,Activity,[33],17.73%
same,IC50,[13],110 nM
same,Activity,[34],5.2%
same,Activity,[35],40.41%
same,IC50,[14],440 nM
same,viability at 0.5 µM,[36],76.1%
CC(=O)O[C@H]1C(=O)[C@@]2(C)[C@H]([C@H](OC(=O)c3ccccc3)[C@]3(O)C[C@H](OC(=O)[C@H](O)[C@@H](NC(=O)c4ccccc4)c4ccccc4)C(C)=C1C3(C)C)[C@]1(OC(C)=O)CO[C@@H]1C[C@@H]2O,Activity,[27],inactive
